Among the data in US20260015358A1, “BICYCLIC DERIVATIVES, COMPOSITIONS AND USES THEREOF” (Danatlas Pharmaceuticals Co., Ltd., priority 2023, published 2026) are IC50 values, retold here.

Test [1] has as its target T1, WRN [UniPro: Q14191 (WRN_HUMAN), N500-C946] (Homo sapiens (Human), UniProt Q14191). Nature of the test: WRN ATPase assay (ADP-Glo). It counts as biochemical. Conditions: WRN enzymatic activity assay.
For test [2], the target named is T1, WRN [UniPro: Q14191 (WRN_HUMAN), N500-C946]. The test can be described thus: WRN unwinding assay (FORKF DNA, fluorescence). Conditions: Table 14. It counts as biochemical.

Molecules are shown by their SMILES.

T1 sequence (Q14191 500-946): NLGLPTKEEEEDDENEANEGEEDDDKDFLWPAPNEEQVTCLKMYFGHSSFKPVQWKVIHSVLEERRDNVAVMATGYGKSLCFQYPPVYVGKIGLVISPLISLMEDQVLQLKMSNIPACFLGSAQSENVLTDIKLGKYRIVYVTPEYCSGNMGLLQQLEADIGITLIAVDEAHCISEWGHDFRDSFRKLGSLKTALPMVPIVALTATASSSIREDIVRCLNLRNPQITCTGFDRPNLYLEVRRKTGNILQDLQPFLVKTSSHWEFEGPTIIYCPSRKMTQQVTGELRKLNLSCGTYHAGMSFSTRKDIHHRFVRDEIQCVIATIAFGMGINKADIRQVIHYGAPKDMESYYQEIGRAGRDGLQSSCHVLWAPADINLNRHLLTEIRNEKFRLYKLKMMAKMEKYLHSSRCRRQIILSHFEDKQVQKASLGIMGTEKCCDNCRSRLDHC

Usually IC50 stands for the midpoint of a concentration-inhibition curve. Low values mean greater potency in that assay, high ones weaker potency in that assay. For `CCc1c(N2CCN(C(=O)CNC(=O)[C@H]3CCCO3)CC2)c(=O)n2nc(C3=CCOCC3)nc2n1CC(=O)Nc1ccc(C(F)(F)F)cc1Cl` [Example 321, (R)—N-(2-(4-(4-(2-((2-Chloro-4-(trifluoromethyl)phenyl)amino)-2-oxoethyl)-2-(3,6-dihydro-2H-pyran-4-yl)-5-ethyl-7-oxo-4,7-dihydro-[1,2,4]triazolo[1,5-a]pyrimidin-6-yl)piperazin-1-yl)-2-oxoethyl)tetrahydrofuran-2-carboxamide], the IC50 is 100 to 1000 nM in test [1] and < 100 nM in test [2].
As for `CCc1c(N2CCN(C(=O)CNC(=O)[C@@H]3CCCO3)CC2)c(=O)n2nc(C3=CCOCC3)nc2n1CC(=O)Nc1ccc(C(F)(F)F)cc1Cl` [Example 322, (S)—N-(2-(4-(4-(2-((2-Chloro-4-(trifluoromethyl)phenyl)amino)-2-oxoethyl)-2-(3,6-dihydro-2H-pyran-4-yl)-5-ethyl-7-oxo-4,7-dihydro-[1,2,4]triazolo[1,5-a]pyrimidin-6-yl)piperazin-1-yl)-2-oxoethyl)tetrahydrofuran-2-carboxamide], the IC50 in test [1] and in test [2] was < 100 nM throughout.
In the case of `CCc1c(N2CCN(C(=O)CN(C)C(C)=O)CC2)c(=O)n2nc(C3=CCOCC3)nc2n1CC(=O)Nc1ccc(C(F)(F)F)cc1Cl` [Example 323, 2-(6-(4-(N-Acetyl-N-methylglycyl)piperazin-1-yl)-2-(3,6-dihydro-2H-pyran-4-yl)-5-ethyl-7-oxo-[1,2,4]triazolo[1,5-a]pyrimidin-4(7H)-yl)-N-(2-chloro-4-(trifluoromethyl)phenyl)acetamide], the IC50 in test [1] and in test [2] was 100 to 1000 nM in each case.
Turning to `CCc1c(N2CCN(C(=O)C(=O)Nc3cc(C)no3)CC2)c(=O)n2nc(C3=CCOCC3)nc2n1CC(=O)Nc1ccc(C(F)(F)F)cc1F` [Example 324, 2-(4-(2-(3,6-Dihydro-2H-pyran-4-yl)-5-ethyl-4-(2-((2-fluoro-4-(trifluoromethyl)phenyl)amino)-2-oxoethyl)-7-oxo-4,7-dihydro-[1,2,4]triazolo[1,5-a]pyrimidin-6-yl)piperazin-1-yl)-N-(3-methylisoxazol-5-yl)-2-oxoacetamide], the IC50 in test [1] and in test [2] was < 100 nM in each case.
For `CCc1c(N2CCN(C(=O)C(=O)Nc3cc(C)ns3)CC2)c(=O)n2nc(C3=CCOCC3)nc2n1CC(=O)Nc1ccc(C(F)(F)F)cc1F` [Example 325, 2-(4-(2-(3,6-Dihydro-2H-pyran-4-yl)-5-ethyl-4-(2-((2-fluoro-4-(trifluoromethyl)phenyl)amino)-2-oxoethyl)-7-oxo-4,7-dihydro-[1,2,4]triazolo[1,5-a]pyrimidin-6-yl)piperazin-1-yl)-N-(3-methylisothiazol-5-yl)-2-oxoacetamide], the IC50 in test [1] and in test [2] was < 100 nM in each case.
As to `CCc1c(N2CCN(C(=O)C(=O)N(C)C)CC2)c(=O)n2nc(C3=CCOCC3)nc2n1CC(=O)Nc1ccc(C(F)(F)F)cc1Cl` [Example 326, 2-(4-(4-(2-((2-Chloro-4-(trifluoromethyl)phenyl)amino)-2-oxoethyl)-2-(3,6-dihydro-2H-pyran-4-yl)-5-ethyl-7-oxo-4,7-dihydro-[1,2,4]triazolo[1,5-a]pyrimidin-6-yl)piperazin-1-yl)-N,N-dimethyl-2-oxoacetamide], the IC50 was 100 to 1000 nM in test [1] and < 100 nM in test [2].
`CCc1c(N2CCN(C(=O)C(=O)Nc3ccccc3)CC2)c(=O)n2nc(C3=CCOCC3)nc2n1CC(=O)Nc1ccc(C(F)(F)F)cc1Cl` [Example 327, 2-(4-(4-(2-((2-Chloro-4-(trifluoromethyl)phenyl)amino)-2-oxoethyl)-2-(3,6-dihydro-2H-pyran-4-yl)-5-ethyl-7-oxo-4,7-dihydro-[1,2,4]triazolo[1,5-a]pyrimidin-6-yl)piperazin-1-yl)-2-oxo-N-phenylacetamide]: the half-maximal inhibitory concentration (IC50) in test [1] and in test [2] was 100 to 1000 nM throughout.
Consider `CCc1c(N2CCN(C(=O)C(=O)NC)CC2)c(=O)n2nc(C3=CCOCC3)nc2n1CC(=O)Nc1ccc(C(F)(F)F)cc1Cl` [Example 329, 2-(4-(4-(2-((2-Chloro-4-(trifluoromethyl)phenyl)amino)-2-oxoethyl)-2-(3,6-dihydro-2H-pyran-4-yl)-5-ethyl-7-oxo-4,7-dihydro-[1,2,4]triazolo[1,5-a]pyrimidin-6-yl)piperazin-1-yl)-N-methyl-2-oxoacetamide], for which the IC50 in test [1] and in test [2] was 100 to 1000 nM throughout.
Turning to `CCc1c(N2CCN(C(=O)C(=O)NOC)CC2)c(=O)n2nc(C3=CCOCC3)nc2n1CC(=O)Nc1ccc(C(F)(F)F)cc1Cl` [Example 330, 2-(4-(4-(2-((2-Chloro-4-(trifluoromethyl)phenyl)amino)-2-oxoethyl)-2-(3,6-dihydro-2H-pyran-4-yl)-5-ethyl-7-oxo-4,7-dihydro-[1,2,4]triazolo[1,5-a]pyrimidin-6-yl)piperazin-1-yl)-N-methoxy-2-oxoacetamide], the IC50 in test [1] and in test [2] was < 100 nM each time.
Regarding `CCc1c(N2CCN(C(=O)C(=O)Nc3cc(C)[nH]n3)CC2)c(=O)n2nc(C3=CCOCC3)nc2n1CC(=O)Nc1ccc(C(F)(F)F)cc1Cl` [Example 331, 2-(4-(4-(2-((2-Chloro-4-(trifluoromethyl)phenyl)amino)-2-oxoethyl)-2-(3,6-dihydro-2H-pyran-4-yl)-5-ethyl-7-oxo-4,7-dihydro-[1,2,4]triazolo[1,5-a]pyrimidin-6-yl)piperazin-1-yl)-N-(5-methyl-1H-pyrazol-3-yl)-2-oxoacetamide], the IC50 in test [1] and in test [2] was < 100 nM in each case.
For `CCc1c(N2CCN(C(=O)C(=O)Nc3nccs3)CC2)c(=O)n2nc(C3=CCOCC3)nc2n1CC(=O)Nc1ccc(C(F)(F)F)cc1Cl` [Example 332, 2-(4-(4-(2-((2-Chloro-4-(trifluoromethyl)phenyl)amino)-2-oxoethyl)-2-(3,6-dihydro-2H-pyran-4-yl)-5-ethyl-7-oxo-4,7-dihydro-[1,2,4]triazolo[1,5-a]pyrimidin-6-yl)piperazin-1-yl)-2-oxo-N-(thiazol-2-yl)acetamide], the IC50 in test [1] and in test [2] was < 100 nM in each case.
In the case of `CCc1c(N2CCN(C(=O)C(=O)Nc3ccn[nH]3)CC2)c(=O)n2nc(C3=CCOCC3)nc2n1CC(=O)Nc1ccc(C(F)(F)F)cc1Cl` [Example 333, 2-(4-(4-(2-((2-Chloro-4-(trifluoromethyl)phenyl)amino)-2-oxoethyl)-2-(3,6-dihydro-2H-pyran-4-yl)-5-ethyl-7-oxo-4,7-dihydro-[1,2,4]triazolo[1,5-a]pyrimidin-6-yl)piperazin-1-yl)-2-oxo-N-(1H-pyrazol-5-yl)acetamide], the IC50 in test [1] and in test [2] was < 100 nM each time.
`CCc1c(N2CCN(C(=O)C(=O)Nc3cncs3)CC2)c(=O)n2nc(C3=CCOCC3)nc2n1CC(=O)Nc1ccc(C(F)(F)F)cc1Cl` [Example 334, 2-(4-(4-(2-((2-Chloro-4-(trifluoromethyl)phenyl)amino)-2-oxoethyl)-2-(3,6-dihydro-2H-pyran-4-yl)-5-ethyl-7-oxo-4,7-dihydro-[1,2,4]triazolo[1,5-a]pyrimidin-6-yl)piperazin-1-yl)-2-oxo-N-(thiazol-5-yl)acetamide]: the IC50 in test [1] and in test [2] was < 100 nM in each case.
For the compound `CCc1c(N2CCN(C(=O)C(=O)Nc3cscn3)CC2)c(=O)n2nc(C3=CCOCC3)nc2n1CC(=O)Nc1ccc(C(F)(F)F)cc1Cl` [Example 335, 2-(4-(4-(2-((2-Chloro-4-(trifluoromethyl)phenyl)amino)-2-oxoethyl)-2-(3,6-dihydro-2H-pyran-4-yl)-5-ethyl-7-oxo-4,7-dihydro-[1,2,4]triazolo[1,5-a]pyrimidin-6-yl)piperazin-1-yl)-2-oxo-N-(thiazol-4-yl)acetamide], the values for the IC50 in test [1] and in test [2] were 100 to 1000 nM and < 100 nM, respectively.
The like results for `CCNC(=O)C(=O)N1CCN(c2c(CC)n(CC(=O)Nc3ccc(C(F)(F)F)cc3Cl)c3nc(C4=CCOCC4)nn3c2=O)CC1` [Example 336, 2-(4-(4-(2-((2-Chloro-4-(trifluoromethyl)phenyl)amino)-2-oxoethyl)-2-(3,6-dihydro-2H-pyran-4-yl)-5-ethyl-7-oxo-4,7-dihydro-[1,2,4]triazolo[1,5-a]pyrimidin-6-yl)piperazin-1-yl)-N-ethyl-2-oxoacetamide] were, in that order, 100 to 1000 nM and 100 to 1000 nM.
For the compound `CCc1c(N2CCN(C(=O)C(=O)NOCc3ccccc3)CC2)c(=O)n2nc(C3=CCOCC3)nc2n1CC(=O)Nc1ccc(C(F)(F)F)cc1Cl` [Example 337, N-(Benzyloxy)-2-(4-(4-(2-((2-chloro-4-(trifluoromethyl)phenyl)amino)-2-oxoethyl)-2-(3,6-dihydro-2H-pyran-4-yl)-5-ethyl-7-oxo-4,7-dihydro-[1,2,4]triazolo[1,5-a]pyrimidin-6-yl)piperazin-1-yl)-2-oxoacetamide], the IC50 in test [1] and in test [2] was < 100 nM each time.
On to `CCc1c(N2CCN(C(=O)CNC(=O)CC3CCCO3)CC2)c(=O)n2nc(C3=CCOCC3)nc2n1CC(=O)Nc1ccc(C(F)(F)F)cc1Cl` (stereo not drawn) [Example 338, N-(2-Chloro-4-(trifluoromethyl)phenyl)-2-(2-(3,6-dihydro-2H-pyran-4-yl)-5-ethyl-7-oxo-6-(4-((2-(tetrahydrofuran-2-yl)acetyl)glycyl)piperazin-1-yl)-[1,2,4]triazolo[1,5-a]pyrimidin-4(7H)-yl)acetamide], for which the IC50 in test [1] and in test [2] was < 100 nM throughout.
As to `CCc1c(N2CCN(C(=O)C(=O)Nc3ccncn3)CC2)c(=O)n2nc(C3=CCOCC3)nc2n1CC(=O)Nc1ccc(C(F)(F)F)cc1F` [Example 340, 2-(4-(2-(3,6-Dihydro-2H-pyran-4-yl)-5-ethyl-4-(2-((2-fluoro-4-(trifluoromethyl)phenyl)amino)-2-oxoethyl)-7-oxo-4,7-dihydro-[1,2,4]triazolo[1,5-a]pyrimidin-6-yl)piperazin-1-yl)-2-oxo-N-(pyrimidin-4-yl)acetamide], the IC50 in test [1] and in test [2] was 100 to 1000 nM throughout.
